{
  "source": "patent US20090011476A1",
  "about": "“GENE CLUSTER AND METHOD FOR THE BIOSYNTHESIS OF TERREQUINONE A” (Wisconsin Alumni Research Foundation, priority 2005, published 2009)",
  "origin": "cited, not measured here",
  "tested_on": "tumor cell lines",
  "details": "literature statement, values not given",
  "data": [
    {"substance": "terrequinone A", "values": [
      {"measurement": "inhibitory properties on tumor cell lines", "result": "inhibitory properties"}
    ]}
  ]
}
